Data taken from patent US20260184689A1, “PIPERIDINE-SUBSTITUTED BENZOIC ACID COMPOUND, AND PHARMACEUTICAL COMPOSITION AND USE THEREOF” (SHANGHAI YISHENG BIOPHARMACEUTICAL COMPANY LIMITED, priority 2022, published 2026).

How the values were obtained:
Complement factor B [1] = target: T1, Complement factor B (Homo sapiens, UniProt P00751); experiment: Optical surface plasmon resonance (SPR) binding affinity assay
Target sequence in this assay (P00751 26-764): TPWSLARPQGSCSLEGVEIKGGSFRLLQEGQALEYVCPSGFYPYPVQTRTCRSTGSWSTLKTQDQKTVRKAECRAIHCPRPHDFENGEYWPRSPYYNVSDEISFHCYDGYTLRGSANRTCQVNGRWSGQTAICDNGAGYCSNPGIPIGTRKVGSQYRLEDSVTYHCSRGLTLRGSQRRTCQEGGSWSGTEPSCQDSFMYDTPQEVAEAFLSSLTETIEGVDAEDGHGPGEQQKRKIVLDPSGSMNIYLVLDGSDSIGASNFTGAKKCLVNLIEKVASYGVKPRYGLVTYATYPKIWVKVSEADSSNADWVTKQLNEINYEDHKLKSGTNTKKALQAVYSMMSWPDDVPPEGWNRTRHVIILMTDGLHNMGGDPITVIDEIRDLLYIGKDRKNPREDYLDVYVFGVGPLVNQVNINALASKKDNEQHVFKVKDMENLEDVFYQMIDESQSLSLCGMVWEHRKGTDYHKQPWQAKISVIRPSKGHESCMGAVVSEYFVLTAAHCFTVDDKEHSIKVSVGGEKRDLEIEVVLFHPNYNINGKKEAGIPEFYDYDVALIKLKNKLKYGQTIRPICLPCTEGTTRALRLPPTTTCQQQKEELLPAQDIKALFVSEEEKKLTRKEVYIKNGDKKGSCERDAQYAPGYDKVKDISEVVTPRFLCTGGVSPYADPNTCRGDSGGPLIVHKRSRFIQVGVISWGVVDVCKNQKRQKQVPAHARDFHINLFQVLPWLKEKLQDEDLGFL
Method: The SPR experiment was conducted at 25° C. using PBS buffer supplemented with 0.05% (v/v) P20 and 5% DMSO as the running buffer. The Biacore 8K instrument from GE Healthcare was employed for analysis. The CM3 chip (GE Healthcare) was activated with 400 mM EDC and 100 mM NHS at a flow rate of 30 μL/min for 420 s.

PNH-like erythrocytes = experiment: Alternative pathway inhibition assay of PNH-like erythrocyte; format: cell-based; settings: 1 h, AET/anti-CD55 sensitized human erythrocytes, acidified normal human serum pH 6.4, 37° C. 60 min
Excerpt: Principle: PNH, as an indication for complement inhibitors, was typically tested using the Ham test, which states that acidified serum was capable of activating the alternative pathway, leading to hemolysis of PNH erythrocytes, while normal erythrocytes remained unaffected. It was reported in the literature that AET could disrupt the complement regulatory proteins on the surface of normal human erythrocytes, resulting in PNH-like erythrocytes.
Reagents and instrument: PBS buffer, normal human serum (NHS), Alsever's solution, microplate reader, MgCl2, EGTA, EDTA, HCl, normal human erythrocytes, AET; anti-CD-55 antibody (BRIC216; Sigma)
PBS buffer: Potassium dihydrogen phosphate (KH2PO4): 0.24 g/L, disodium hydrogen phosphate (Na2HPO4): 1.44 g/L, sodium chloride (NaCl): 8 g/L, potassium chloride (KCl): 0.2 g/L, pH 7.4
PBSE buffer: PBS, 10 mM EDTA; pH 7.4
PBSMg buffer: PBS, 1 mM Mg++; pH 6.4
10× Mg-EGTA stock solution: 25 mM MgCl2, 80 mM EGTA; pH 6.4
10× EDTA stock solution: 100 mM EDTA; pH 6.4
Method: The inhibition of alternative pathway-mediated erythrocyte lysis was evaluated using an in vitro model of PNH. Normal human erythrocytes were sensitized with 2-aminoethylisothiouronium bromide (AET) to inactivate complement regulatory proteins on the cell surface and induce a PNH-like phenotype.
2 mL of normal human erythrocytes were mixed with 2 mL of Alsever's solution, washed three times with PBS, and centrifuged at 2500×g, with the upper 10% of the erythrocytes being removed each time. The washed 1 mL erythrocytes were sensitized by incubation with 4 mL of 8% w/v AET (pH 8.0) at 37° C. for 10 min, followed by three additional washes with PBS. Subsequently, the concentration of erythrocytes in PBS (erythrocyte stock solution) was adjusted with PBS such that an absorbance of 1.5-2.0 at 412 nm (indicating hemoglobin release) was achieved upon dilution of 10 μL erythrocyte stock solution with 190 μL water.
1.5 mL of the erythrocyte stock solution was mixed with anti-CD55 antibody (BRIC216; Sigma/final concentration of 6.7 μg/mL) and incubated on ice for 30 min. After being washed once with PBS, the treated erythrocytes were resuspended in PBS-Mg to the initial volume of 1.5 mL. The following AP-mediated lysis assay was performed on this erythrocyte preparation with induced PNH phenotype.
The normal human serum was acidified with 0.2 M HCl to pH 6.4, and supplemented with MgCl2 and EGTA to final concentrations of 2.5 and 8 mM, respectively. 80 μL of this serum mixture was mixed with 10 μL of PBS-Mg (negative blank) or 10 μL of samples at various concentrations. Normal human serum was acidified with 0.2 M HCl to pH 6.4, supplemented with EDTA to a final concentration of 10 mM, and 80 μL of this serum mixture was mixed with 10 μL of PBS-Mg (negative blank) as a blank positive control. The sample was incubated with serum on ice for 5 min, and then 10 μL of sensitized erythrocytes were added. The final serum concentration in the reaction mixture was approximately 64% v/v, incubated at 37° C. for 60 min, and the reaction was quenched by adding 50 μL of ice-cold PBS containing 10 mM EDTA. The remaining unlysed cells were centrifuged at 2500×g for 10 min, and 100 μL of the supernatant was transferred to a 96-well plate to measure its absorbance at 412 nm. The amount of hemoglobin released during erythrocyte lysis was thereby quantified. […] represented the relative lysis of PNH-like erythrocytes (expressed in %; set to 0% for the PC sample and 100% for the NC sample). The absorbance was measured using a microplate reader (Molecular Devices SpectraMax 3X). The IC50 value was calculated by applying nonlinear regression with GraphPad Prism 9.0 software from the percentage of hemolysis as a function of the test compound concentration.

Complement factor B [2] = target: T1, Complement factor B; experiment: Human complement factor B ELISA assay (CVF-Bb, complement C3 protein); format: biochemical; set-up: followed by the addition of 0.2 μL of CVF-Bb (0.1 μmol/mL); settings: CVF-Bb incubated with compound 1 hour, then complement C3 protein 37° C. 2 hours, OD 450 nm
Description: The mixture was incubated at room temperature for 1 hour;
Then, 9 μL of the successfully incubated samples were taken and added to the wells of the 96T plate, followed by the addition of 1 μL complement C3 protein, and the reaction was carried out at a constant temperature of 37° C. for 2 hours;
The 9 μL of the aforementioned sample-free liquid was mixed with 1 μL of complement C3 protein as the negative control; • 10 μL of the successfully incubated sample was taken, and the inhibitory concentration was determined by ELISA. The OD value at 450 nm was measured, and a curve was plotted. The obtained data were analyzed using GraphPad Prism 7.0 software, and a Log concentration-inhibition rate curve was generated using a nonlinear regression model to calculate the IC50 value.
Target sequence in this assay (P00751 260-764 limits assumed): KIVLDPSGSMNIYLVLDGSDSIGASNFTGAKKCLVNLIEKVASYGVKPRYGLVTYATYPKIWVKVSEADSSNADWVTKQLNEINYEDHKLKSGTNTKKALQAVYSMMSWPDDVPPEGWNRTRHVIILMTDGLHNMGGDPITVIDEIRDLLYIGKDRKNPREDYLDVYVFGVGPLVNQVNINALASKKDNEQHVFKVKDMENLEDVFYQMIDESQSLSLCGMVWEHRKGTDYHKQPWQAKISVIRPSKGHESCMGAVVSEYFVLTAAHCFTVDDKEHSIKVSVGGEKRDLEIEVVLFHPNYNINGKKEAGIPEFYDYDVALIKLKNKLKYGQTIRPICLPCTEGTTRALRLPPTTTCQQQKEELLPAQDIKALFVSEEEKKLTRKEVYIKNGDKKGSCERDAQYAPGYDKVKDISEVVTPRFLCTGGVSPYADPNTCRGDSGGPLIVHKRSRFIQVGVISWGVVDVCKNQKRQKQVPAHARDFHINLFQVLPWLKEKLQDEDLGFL
Target sequence in this assay (Q91132 23-649 partner limits assumed): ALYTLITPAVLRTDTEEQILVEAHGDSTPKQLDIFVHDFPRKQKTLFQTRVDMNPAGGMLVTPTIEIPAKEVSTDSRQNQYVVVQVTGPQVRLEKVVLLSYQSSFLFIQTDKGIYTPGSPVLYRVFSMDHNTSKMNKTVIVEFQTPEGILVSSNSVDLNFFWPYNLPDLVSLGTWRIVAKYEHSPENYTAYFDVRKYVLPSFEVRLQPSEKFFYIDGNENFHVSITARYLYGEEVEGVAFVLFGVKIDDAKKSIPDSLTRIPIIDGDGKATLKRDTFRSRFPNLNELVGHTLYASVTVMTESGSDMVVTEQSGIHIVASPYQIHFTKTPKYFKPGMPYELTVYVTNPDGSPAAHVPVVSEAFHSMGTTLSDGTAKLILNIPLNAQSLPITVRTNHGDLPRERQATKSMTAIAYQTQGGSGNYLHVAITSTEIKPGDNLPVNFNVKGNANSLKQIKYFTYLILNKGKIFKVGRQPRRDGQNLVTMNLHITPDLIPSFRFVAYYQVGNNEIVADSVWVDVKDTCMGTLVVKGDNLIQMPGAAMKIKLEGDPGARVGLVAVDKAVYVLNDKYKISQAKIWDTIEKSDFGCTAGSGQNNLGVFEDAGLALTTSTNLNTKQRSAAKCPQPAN
Target sequence in this assay (Q91132 733-984 partner limits assumed): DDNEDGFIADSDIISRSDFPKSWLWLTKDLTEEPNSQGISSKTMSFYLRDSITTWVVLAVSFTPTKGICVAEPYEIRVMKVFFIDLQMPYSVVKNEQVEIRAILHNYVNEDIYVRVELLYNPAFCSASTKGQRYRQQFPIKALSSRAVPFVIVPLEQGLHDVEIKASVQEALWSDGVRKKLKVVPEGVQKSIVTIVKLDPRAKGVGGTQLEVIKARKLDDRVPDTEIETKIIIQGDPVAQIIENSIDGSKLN
Target sequence in this assay (Q91132 1264-1642 partner limits assumed): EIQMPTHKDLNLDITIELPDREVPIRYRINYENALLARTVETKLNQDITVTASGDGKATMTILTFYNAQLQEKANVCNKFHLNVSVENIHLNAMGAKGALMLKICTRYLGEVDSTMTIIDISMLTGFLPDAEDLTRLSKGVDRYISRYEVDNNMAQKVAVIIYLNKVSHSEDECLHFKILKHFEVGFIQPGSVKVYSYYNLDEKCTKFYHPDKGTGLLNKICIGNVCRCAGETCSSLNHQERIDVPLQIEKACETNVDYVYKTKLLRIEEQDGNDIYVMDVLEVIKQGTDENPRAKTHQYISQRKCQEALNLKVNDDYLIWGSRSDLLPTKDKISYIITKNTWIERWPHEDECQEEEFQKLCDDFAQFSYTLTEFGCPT

SMILES	Kd (Complement factor B [1]) [nM]	IC50 (PNH-like erythrocytes) [nM]	IC50 (Complement factor B [2]) [nM]
COc1cc(C)c2[nH]ccc2c1C(=O)N1CCC(O)(C2CCC2)C[C@H]1c1ccc(C(=O)O)cc1 (mixture of isomers) [Final product of Example 154, 4-((2S)-4-Cyclobutyl-4-hydroxy-1-(5-methoxy-7-methyl-1H-indole-4-carbonyl)piperidin-2-yl)benzoic acid]	10 to 30	4000 to 4500	400 to 450
CCO[C@H]1CCN(C(=O)c2c(OC)cc(C)c3[nH]ccc23)[C@H](c2ccc(C(=O)O)cc2)C1 [Compound 1 of Example 55, 4-((2S,4S)-4-Ethoxy-1-(5-methoxy-7-methyl-1H-indole-4-carbonyl)piperidin-2-yl)benzoic acid]	10 to 30	1000 to 1500	150 to 300
COc1cc(C)c2[nH]ccc2c1C(=O)N1CC[C@H](OCC2CC2)C[C@H]1c1ccc(C(=O)O)cc1 [Compound 9 of Example 71, 4-((2S,4S)-4-(Cyclopropylmethoxy)-1-(5-methoxy-7-methyl-1H-indole-4-carbonyl)piperidin-2-yl)benzoic acid]	10 to 30	6000 to 6500	
CCO[C@H]1CCN(S(=O)(=O)c2c(OC)cc(C)c3[nH]ccc23)[C@H](c2ccc(C(=O)O)cc2)C1 [Compound 51 of Example 144, 4-((2S,4S)-4-Ethoxy-1-((5-methoxy-7-methyl-1H-indol-4-yl)sulfonyl)piperidin-2-yl)benzoic acid]	10 to 30	2000 to 2500	300 to 500
COc1cc(C)c2[nH]ccc2c1C(=O)N1CCC(O)(C2CC2)C[C@H]1c1ccc(C(=O)O)cc1 (stereo partly drawn) [Final product of Example 155, 4-((2S)-4-Cyclopropyl-4-hydroxy-1-(5-methoxy-7-methyl-1H-indole-4-carbonyl)piperidin-2-yl)benzoic Acid]	10 to 30	1000 to 1500	150 to 300
COc1cc(C)c2[nH]ccc2c1C(=O)N1CC[C@H](OC)C[C@H]1c1ccc(C(=O)O)cc1 [Final product of Example 156, 4-((2S,4S)-4-Methoxy-1-(5-methoxy-7-methyl-1H-indole-4-carbonyl)piperidin-2-yl)benzoic acid]	10 to 30	1000 to 1500	150 to 300
COc1cc(C)c2[nH]ccc2c1C(=O)N1CC[C@H](OC2CCC2)C[C@H]1c1ccc(C(=O)O)cc1 [Final product of Example 157, 4-((2S,4S)-4-Cyclobutoxy-1-(5-methoxy-7-methyl-1H-indole-4-carbonyl)piperidin-2-yl)benzoic acid]	10 to 30	4000 to 4500	400 to 450
CCO[C@H]1CCN(Cc2c(OC)cc(C)c3[nH]ccc23)[C@H](c2ccc(C(=O)O)cc2)C1 [LNP023, reference compound]		224	
